Results: PubChem BioAssay (NCI)
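How tested: cells in 96-well plates exposed to compound for 48 hours at five concentrations. TGI denotes the concentration required for complete inhibition of growth.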 Where a SMILES comes first, the peptide text is derived from it. Bridges are numbered along the chain shown (N, C = ends). [ ]: non-standard residue; d: D form. The star is where a group is joined. PhAc = O=C(Cc1ccccc1)*

Assays:
Test in all cases: NCI tumour cell line growth inhibition, 48 h
BT-549 breast = tested on: BT-549 breast
HCC-2998 colon = tested on: HCC-2998 colon
HCT-116 colon = tested on: HCT-116 colon
HCT-15 colon = tested on: HCT-15 colon
IGROV1 ovarian = tested on: IGROV1 ovarian
K-562 leukemia = tested on: K-562 leukemia
LOX IMVI melanoma = tested on: LOX IMVI melanoma
MOLT-4 leukemia = tested on: MOLT-4 leukemia
NCI-H23 lung = tested on: NCI-H23 lung
OVCAR-8 ovarian = tested on: OVCAR-8 ovarian
RPMI-8226 leukemia = tested on: RPMI-8226 leukemia
SW-620 colon = tested on: SW-620 colon
TK-10 renal = tested on: TK-10 renal
UACC-257 melanoma = tested on: UACC-257 melanoma
UACC-62 melanoma = tested on: UACC-62 melanoma
UO-31 renal = tested on: UO-31 renal
COLO 205 colon = tested on: COLO 205 colon
MDA-MB-435 = tested on: MDA-MB-435

SMILES	TGI (BT-549 breast) [µM]	TGI (HCC-2998 colon) [µM]	TGI (HCT-116 colon) [µM]	TGI (HCT-15 colon) [µM]	TGI (IGROV1 ovarian) [µM]	TGI (K-562 leukemia) [µM]	TGI (LOX IMVI melanoma) [µM]	TGI (MOLT-4 leukemia) [µM]	TGI (NCI-H23 lung) [µM]	TGI (OVCAR-8 ovarian) [µM]	TGI (RPMI-8226 leukemia) [µM]	TGI (SW-620 colon) [µM]	TGI (TK-10 renal) [µM]	TGI (UACC-257 melanoma) [µM]	TGI (UACC-62 melanoma) [µM]	TGI (UO-31 renal) [µM]	TGI (COLO 205 colon) [µM]	TGI (MDA-MB-435) [µM]
Cc1c(C#N)c(N)[nH]c(=S)c1C#N	> 100	> 100	> 100	> 100	> 100	> 100	> 100	> 100	> 100	> 100	> 100	> 100	> 100	> 100	> 100	> 100		
NC1OC(COC(=O)c2ccccc2)C(O)C(OC(=O)c2ccccc2)C1OC(=O)c1ccccc1 (stereo unspecified)	40.6		34.2	> 100	35.9		34.7	54	61.9	37.8	> 100	53.6	> 100	47.2	29.4	94.2	50.3	46.7
CCOc1cc2ccc3c4cc(OC)c(OC)cc4cnc3c2cc1OCC		> 100	> 100	> 100	> 100	> 100		> 100	> 100	> 100	> 100	> 100	> 100	> 100	> 100	> 100	> 100	
O=C(/C=C/c1ccc(O)c(O)c1)OCc1ccccc1		> 100	30.5	> 100	13.5	61	71.6	39.1	60.3		32.2	> 100	54.3	59.1	53.9	51.1	70.9	97.3
Cc1ccc2nc(N/N=C/c3ccc(C)s3)cc(C)c2c1		17.3	12.3	15.3	23.6	> 100	14.4	53.4	22	31.3	56.6	29.4	25.2	19.9	23.6		12.2	23.1
CCCCOCn1c(=O)[nH]c(=O)c2ccccc21			> 100	> 100	> 100	> 100	> 100	> 100		> 100		> 100	> 100	> 100	> 100	46.7	> 100	> 100
COc1ccc(/C=N/N=C(\N)NO)c(Cl)c1O		40.4	> 100	> 100	> 100	> 100	> 100	> 100	63.7	> 100	> 100	> 100		> 100	> 100	54.1	> 100	
O=C1CCCC2=C1CC1=C(CCCC1=O)N2c1ccccc1C(=O)O	> 100	> 100		> 100	> 100	> 100	> 100	> 100	> 100	> 100	> 100	> 100	> 100		> 100	> 100		
O=C(Cc1ccccc1)N[C@@H]1COC(=O)[C@@H]2CCCN2C(=O)[C@@H]2CCCN2C1=O (PhAc-[dS]-Pro-Pro; ester 1-C)		> 100	> 100	> 100	> 100		> 100	> 100	> 100	> 100		> 100	> 100	> 100	> 100		> 100	> 100
CCC(=O)C1(N2CCOCC2)CCN(CCCC(=O)c2ccc(F)cc2)CC1		> 100	> 100	> 100	> 100	> 100	> 100	> 100	> 100	> 100	> 100	> 100	> 100		> 100	> 100	> 100	> 100
Cc1ccc(/C=N/Nc2nc3ccccc3s2)s1		> 100	> 100	> 100	> 100	> 100	> 100	> 100	> 100	> 100	> 100	> 100	> 100	> 100	> 100	> 100	> 100	> 100
O=c1cc(-c2ccccc2)oc2cc(OCC(O)COc3ccc4c(=O)cc(-c5ccccc5)oc4c3)ccc12			> 100	> 100	> 100	> 100	> 100	> 100	> 100	> 100	> 100	> 100	> 100	> 100	> 100	> 100		
Oc1cccc(-c2ccc3c4c2O[C@H]2c5[nH]c6ccccc6c5C[C@@]5(O)[C@@H](C3)N(CC3CC3)CC[C@]425)c1	23		3.22	3.03	3.12		3.19		5.17	3.23		6.15	4.34			3.03	5.92	3.1
CC1=C(C)CC(C#N)(C#N)C(C#N)(C#N)C1		> 10	> 7.32	> 10	> 5.87	9.98	> 10	> 6.09	> 6.63	> 9.66	> 6.71	> 5.42	> 8.75	> 10	> 10	> 10	> 6.8	
